Test results reported in US20170305981A1, “SYNTHETIC PEPTIDES” (The University of Chicago, priority 2014, published 2017).
Several values for one entry are separate records, joined by “and”; a condition that tells them apart may be missing. Identical values can stand only once. Entries after “also recorded” stand apart in the source; their conditions may differ. Values belong to the substance of their own block, whether it stands above or below them.

Key:
lipoprotein lipase (LpL) = assay: Lipoprotein lipase (LpL) in vitro activity assay with fluorogenic TG substrate EnzChek; assay type: biochemical; details: for LpL stimulating activity of domain substitution peptides relative to AV199-232: knockout substitutions in AV199-232 domains
Method: FIG. 3A-C. Lipoprotein lipase (LpL) activity assay using a fluorogenic TG analog, EnzChek (Invitrogen). The enzyme reaction mix was composed of increasing concentrations of LpL in 100 μl Tris buffered saline (TBS), 1% BSA, pH 7.8, 0.015% Zwittergent 3-14 and 1 μM EnzChek substrate. Reaction was monitored by fluorescence (λex=482 nm, λem=515 nm) and the relative fluorescence units (RFU) against time plotted (A). BODIPY labeled fatty acid (BODIPY-FA) was used to determine product concentration generated with the lipase (B). Structure of the EnzChek substrate (E33955) which was purchased from Invitrogen Inc. (C).
To search for lipase stimulators, a lipase assay was employed using a commercially available fluorogenic-TG substrate (EnzChek) supplied by Molecular Probes (FIG. 3). The protocol was adapted from Basu et al., (Basu et al. (2011) J.Lipid Res. 52, 826-832; herein incorporated by reference in its entirety) with minor modifications in pH and detergent. For in vitro assays, LpL (SIGMA) was diluted to 0.12 μg/ml in 20 mM Tris-HCl, 150 mM NaCl, 1% BSA, 0.015% Zwittergent 3-14, pH 7.8, 1 μM EnzChek substrate, prepared in 96-well black microtiter plates. For some assays the plates were incubates at 37° C. for 10min. Detection was performed in a Synergy H1 Multi-Mode Reader using excitation/emission wavelengths of 482 nm and 515 nm, respectively. […] Moreover, the product produced could be quantified using BODIPY-C12 fatty acids to determine the molar rates of enzyme reaction. Since the assay uses a non-toxic substrate and a low amount of neutral detergent it is possible to use this assay with live cells (FIG. 4). The lipase activities assayed were sensitive to both the removal of lipase (HL) from the surface of hepatocytes (by a heparin pre-wash) and to apolipoproteins present in isolated lipoproteins, VLDL, LDL and HDL preparations.

LpL [1] = assay: LpL activity in the presence of human plasma / plasma TG-rich lipoproteins; assay type: biochemical; details: normal and dyslipidemic plasma
Method: (§1) The removal of cell surface LpL with heparin reduced activity.
(§2) Plasma contains lipoproteins with apoC-III and ANGPT4, known inhibitors of LpL activity. However, LpL activity in live leukocytes was stimulated by AV199-232 (FIG. 23C). […] AV199-232 was incubated with whole plasma from normal and diabetic/dyslipidemic plasma and then the TG-rich lipoproteins (Lp) were isolated by PEG-8000 precipitation and added to LpL assays (30 μg/ml).

LpL in THP-1 macrophages = target: T1, LpL in THP-1 macrophages (Homo sapiens, UniProt P06858); assay: Lipase activity in cultures of live THP-1 macrophages; assay type: cell-based; details: live THP-1 macrophages known to express LpL
T1 construct: endogenous in cells; host or cells: THP-1 macrophages
T1 sequence (P06858 28-475): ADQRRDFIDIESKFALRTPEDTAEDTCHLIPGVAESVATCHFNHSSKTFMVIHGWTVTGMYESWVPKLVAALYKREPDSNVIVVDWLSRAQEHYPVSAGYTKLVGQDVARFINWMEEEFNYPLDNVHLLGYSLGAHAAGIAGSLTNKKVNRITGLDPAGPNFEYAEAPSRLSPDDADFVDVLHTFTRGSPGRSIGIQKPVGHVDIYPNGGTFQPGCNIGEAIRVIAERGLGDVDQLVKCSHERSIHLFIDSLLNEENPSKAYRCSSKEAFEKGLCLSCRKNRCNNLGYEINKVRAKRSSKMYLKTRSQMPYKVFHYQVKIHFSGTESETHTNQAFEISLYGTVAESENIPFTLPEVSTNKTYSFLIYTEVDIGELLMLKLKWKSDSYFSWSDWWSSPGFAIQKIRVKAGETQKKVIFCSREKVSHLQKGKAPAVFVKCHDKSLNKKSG
Method: FIG. 8. Determining the minimum peptide sequence (A) harboring full lipase stimulating activity (B, D). […] Assays were performed by adding 10 μM of peptide to in vitro LpL assays (B) or to hepatocyte (HepG2) cell cultures (D). In 24 well tissue culture plates, cells were incubated for 1 hr at 37° C. in 200 μL TBS, 1.5% BSA, 0.2% zwittergent 3-14, 1μM EnzChek substrate. AV199-232 was also active in cultures of live THP-1 macrophages known to express LpL (C).

LpL [2] = assay: LpL enzyme kinetics (Vmax, Km) by Michaelis-Menten fitting; assay type: biochemical
Method: FIG. 9. […] Lipase reaction was performed with different substrate concentrations (0-25 μM) (A, C, D) to determine the kinetic parameters of LpL enzymatic activity, +/− VLDL (10 μg/ml) and +/− AV199-232 (2.5 μM). (B) The addition of VLDL reduced the enzymes affinity for substrate by 5.3-fold which is consistent with inhibition by apoC-III. […] Kinetic parameters were determined using GraphPad Prism software curve fitting to the Michaelis-Menten enzyme kinetic equation.
The influence of AV199-232 on the kinetic parameters of LpL activity (e.g., Vmax and Km) was investigated (FIG. 9A-B). […] This was due to the apoC-III content of VLDL. […] Also AV199-232 was functional in the presence of apoC-III in VLDL. The effect of different lipoproteins on LpL kinetics was compared (FIG. 9D).

[3] = Heparin binding (circular dichroism on addition of heparin)
Method: FIG. 10. AV199-232 is an a-helical peptide that binds heparin. Peptide folding and conformation was analyzed experimentally by circular dichroism spectroscopy (A) and calculated to be ˜42% α-helical which increased to ˜76% on binding heparin.
Given that there appeared to be a periodicity in the sequence of AV199-232 consisting of alternating polar and non-polar residues, the possibility that the peptide was folded into a amphipathic α-helix was investigated (FIG. 10). […] In silico analysis also predicted a high α-helical content. […] The amphipathic nature of the peptide was evident with polar residues and nonpolar residues (domain-L) organized to opposite sides of the helix. Domain-L is responsible for binding to VLDL. Domain-1, domain-2 and domain-H were also identified on the polar side.

VLDL = VLDL binding, complexes isolated by gel filtration on Sepharose CL-4B, then LpL assay
Method: VLDL (100 μg) was incubated with AV199-232 (50 μg) and complexes were isolated from free peptide by gel filtration on a Sepharose CL-4B column (FIG. 15A).

Leukocyte-LpL = target: T2, Leukocyte-LpL (Homo sapiens, UniProt P06858); assay: LpL activity in live leukocytes isolated from fresh human blood; assay type: cell-based
T2 construct: endogenous in cells; host or cells: leukocytes isolated from fresh human blood
T2 sequence (P06858 28-475): T1 sequence (P06858 28-475)
Method: as §1, §2

[4] = peptide added to LpL without VLDL, 10 μM
[5] = peptides 80 μg/ml preincubated with VLDL 20 μg/ml

LpL stimulating activity of domain substitution peptides relative to AV199-232 (lipoprotein lipase (LpL)): significant reduction
Substance: Dom1KO: AV199-232 with domain 1 substitutions R12Q/D30S (ARLSRCVQVLSQKLTLKAKALHARIQQNLSQLRE)

Substance: AV-H/K: AV199-232 peptide with H in domain-H replaced with a K (ARLSRCVQVLSRKLTLKAKALKARIQQNLDQLRE; Mutated wild-type peptide)
stimulation of LpL activity in the presence of plasma (LpL [1]): stimulates LpL

LpL stimulating activity of domain substitution peptides relative to AV199-232 (lipoprotein lipase (LpL)): moderate reduction in activity
Substance: DomLKO: peptide with domain L substitutions L10Q/L21Q/L29Q (ARLSRCVQVQSRKLTLKAKAQHARIQQNQDQLRE)

lipase stimulating activity in THP-1 macrophages (LpL in THP-1 macrophages): active
increase of LpL's apparent affinity for substrate (Km improvement) (LpL [2]; AV199-232 2.5 μM + VLDL 10 μg/ml): ~8 fold and 7.8 fold
changes in the Vmax and Km of LpL (LpL [2]; AV199-232 2.5 μM without VLDL): only marginal changes
VLDL binding (VLDL; VLDL 100 μg incubated with AV199-232 50 μg): binds VLDL
Substance: AV199-232: 34-residue peptide, residues 199-232 of apoA-V; AV199-237 shortened by 5 residues (ARLSRCVQVLSRKLTLKAKALHARIQQNLDQLRE; listed as Homo sapiens)
lipase stimulating activity of the shortened peptide relative to AV199-237 (lipoprotein lipase (LpL); 10 μM, in vitro LpL assays and HepG2 cell cultures): harbored full activity and was actually somewhat more potent; also recorded: enhancement of activity
heparin binding [3]: heparin binding activity; also recorded: binds heparin
LpL stimulation by the isolated VLDL:AV199-232 complex (VLDL; void fraction (Vo) of gel filtration added to LpL): effective at stimulating LpL activity; also recorded: stimulates LpL activity
stimulation of LpL activity in live leukocytes (Leukocyte-LpL): responds; also recorded: stimulated; also recorded: responsive
stimulation of LpL activity in the presence of plasma (LpL [1]): stimulates LpL activity

LpL stimulating activity of domain substitution peptides relative to AV199-232 (lipoprotein lipase (LpL)): significant reduction
Substance: Dom2KO: AV199-232 with domain 2 substitutions K13Q/K17Q (ARLSRCVQVLSRQLTLQAKALHARIQQNLDQLRE)

influence on LpL activity (lipoprotein lipase (LpL); [4]): Little or no stimulating activity
Substance: AV250-288: peptide spanning residues 250-288 of apoA-V (DPQMLSEEVRQRLQAFRQDTYLQIAAFTRAIDQETEEVQ)
influence on LpL activity (lipoprotein lipase (LpL); in the presence of VLDL): Little or no stimulating activity; also recorded: did not

stimulation of LpL activity (lipoprotein lipase (LpL); peptide incubated with VLDL before adding to LpL, 10 μM): ~4 fold
Substance: AV199-237: synthetic peptide spanning residues 199-237 of mature human apoA-V (ARLSRCVQVLSRKLTLKAKALHARIQQNLDQLREELSRA; listed as Homo sapiens)
influence on LpL activity (lipoprotein lipase (LpL); in the presence of VLDL): exceeded that seen with an apoC-II peptide (C-II50-79); also recorded: stimulated LpL activity in the presence of VLDL
influence on LpL activity (lipoprotein lipase (LpL); [4]): no change in activity; also recorded: did not increase enzyme activity

LpL stimulating activity of domain substitution peptides relative to AV199-232 (lipoprotein lipase (LpL)): did not influence AV199-232 activity
Substance: Dom1(E34K): AV199-232 with E34K substitution in domain 1 (ARLSRCVQVLSRKLTLKAKALHARIQQNLDQLRK)

lipase stimulating activity relative to AV-H/K (lipoprotein lipase (LpL); [5]): reduced lipase stimulating activity
Substance: SEQ ID NO: 22: AV-H/K with L10Q, L21Q and L29Q substitutions (ARLSRCVQVQSRKLTQKAKALKARIQQNQDQLRE; Mutated wild-type peptide)

improvement in lipase stimulating activity relative to AV-H/K (lipoprotein lipase (LpL); [5]): about 2 fold
Substance: SEQ ID NO: 23: AV-H/K with L10F and L29F substitutions (ARLSRCVQVFSRKLTLKAKALKARIQQNFDQLRE; Mutated wild-type peptide)
